This is an account of results in the Kinase Knowledgebase extract (Sharma et al. 2016).

In the assay the target is PIK3CG (human) (UniProt P48736). Put plainly: Inhibition of PIK3CG Kinase Activity.
Sequence of PIK3CG (human) (P48736 whole entry, looked up): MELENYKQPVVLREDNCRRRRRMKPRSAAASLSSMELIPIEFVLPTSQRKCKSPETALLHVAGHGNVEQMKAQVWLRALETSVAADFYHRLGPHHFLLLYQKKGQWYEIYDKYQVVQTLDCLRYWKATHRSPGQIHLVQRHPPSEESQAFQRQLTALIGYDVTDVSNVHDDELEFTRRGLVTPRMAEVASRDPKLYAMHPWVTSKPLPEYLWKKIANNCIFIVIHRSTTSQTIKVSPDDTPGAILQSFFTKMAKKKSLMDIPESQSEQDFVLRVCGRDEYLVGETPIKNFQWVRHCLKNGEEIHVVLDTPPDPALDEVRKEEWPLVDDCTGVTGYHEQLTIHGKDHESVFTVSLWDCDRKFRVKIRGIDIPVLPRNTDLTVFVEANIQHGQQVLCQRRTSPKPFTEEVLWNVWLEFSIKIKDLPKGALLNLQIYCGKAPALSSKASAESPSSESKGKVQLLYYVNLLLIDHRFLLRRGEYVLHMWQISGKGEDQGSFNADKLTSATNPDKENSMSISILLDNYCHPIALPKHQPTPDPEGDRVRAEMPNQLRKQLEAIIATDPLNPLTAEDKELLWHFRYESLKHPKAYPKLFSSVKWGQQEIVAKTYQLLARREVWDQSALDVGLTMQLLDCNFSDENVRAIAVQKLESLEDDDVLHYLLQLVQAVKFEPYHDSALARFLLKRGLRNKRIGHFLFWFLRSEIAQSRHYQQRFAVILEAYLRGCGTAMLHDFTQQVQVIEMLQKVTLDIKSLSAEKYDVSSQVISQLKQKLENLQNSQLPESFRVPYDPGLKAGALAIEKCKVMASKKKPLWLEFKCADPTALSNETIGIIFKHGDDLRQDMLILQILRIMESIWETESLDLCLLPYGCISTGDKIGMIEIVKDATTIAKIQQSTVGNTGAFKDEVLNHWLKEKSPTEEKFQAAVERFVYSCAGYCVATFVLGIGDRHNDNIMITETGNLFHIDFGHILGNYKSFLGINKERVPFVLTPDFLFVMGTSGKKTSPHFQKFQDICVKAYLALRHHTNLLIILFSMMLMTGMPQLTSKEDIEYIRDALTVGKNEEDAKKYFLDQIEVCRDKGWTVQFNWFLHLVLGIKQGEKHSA
By IC50 is commonly meant the point on the concentration scale where inhibition reaches its midpoint. As to `COc1ccc2oc(C(=O)Nc3nnn[nH]3)c(OCC3CCCC3)c2c1`, the half-maximal inhibitory concentration (IC50) stood at 160 nM. `COc1ccc2oc(C(=O)Nc3nnn[nH]3)c(OC3CCC(C)C(C)C3)c2c1` (centres undefined) came in with an IC50 of 76 nM.

Take `COc1ccc2oc(C(=O)Nc3nnn[nH]3)c(OC3CCCCCCC3)c2c1`: the IC50 turned out to be 185 nM. As to `COc1ccc2oc(C(=O)Nc3nnn[nH]3)c(OC3CC(C)CCC3C)c2c1` (centres undefined), the IC50 turned out to be 370 nM.

In turn, `COc1ccc2oc(C(=O)Nc3nnn[nH]3)c(OC3CC(C)CC3C)c2c1` (centres undefined) gave an IC50 of 290 nM. `COc1ccc2oc(C(=O)Nc3nnn[nH]3)c(OC3CCC4CCCCC4C3)c2c1` (centres undefined) registered a 50% inhibitory concentration (IC50) of 325 nM. As for `COc1ccc2oc(C(=O)Nc3nnn[nH]3)c(OCC3CCC3)c2c1`, the figure is 175 nM; as for `COc1ccc2oc(C(=O)Nc3nnn[nH]3)c(OCC3CC=CCC3)c2c1` (centres undefined), 315 nM; as for `COc1ccc2oc(C(=O)Nc3nnn[nH]3)c(OCC3(C)COC3)c2c1`, 3640 nM.

Molecule `COc1ccc2oc(C(=O)Nc3nnn[nH]3)c(OCC3CC3)c2c1` showed an IC50 of 690 nM. Under `COc1ccc2oc(C(=O)Nc3nnn[nH]3)c(OC3CCCCC3)c2c1` stands 255 nM; under `COc1ccc2oc(C(=O)Nc3nnn[nH]3)c(OC3CC4CCC3C4)c2c1` (centres undefined), 335 nM; under `COc1ccc2oc(C(=O)Nc3nnn[nH]3)c(OCC3CCCCC3)c2c1`, 840 nM. On to `COc1ccc2oc(C(=O)Nc3nnn[nH]3)c(OC3CCOCC3)c2c1`, for which the half-inhibitory concentration (IC50) amounted to 1180 nM.

Take `COc1ccc2oc(C(=O)Nc3nnn[nH]3)c(OCC3(C)CC3)c2c1`: the half-maximal inhibitory concentration (IC50) amounted to 220 nM.

In turn, `COc1ccc2oc(C(=O)Nc3nnn[nH]3)c(OC3CCC(C4CCCCC4)CC3)c2c1` (centres undefined) gave an IC50 of 380 nM. `COc1ccc2oc(C(=O)Nc3nnn[nH]3)c(OCC3CC=CCC3C)c2c1` (centres undefined) showed an IC50 of 185 nM.

Consider `COc1ccc2oc(C(=O)Nc3nnn[nH]3)c(OC3CCCC3)c2c1`, for which the IC50 was 1050 nM.

As for `CC1(OCOc2c(C(=O)Nc3nnn[nH]3)oc3ccc(Cl)cc23)CC1`, the IC50 is 1460 nM. Molecule `COc1ccc2oc(C(=O)Nc3nnn[nH]3)c(OCC3C4CCC(C4)C3C)c2c1` (centres undefined) displayed a half-maximal inhibitory concentration (IC50) of 67 nM. `CCC(Oc1c(C(=O)Nc2nnn[nH]2)oc2ccc(OC)cc12)C1CCCCC1` (centres undefined) registered a 50% inhibitory concentration (IC50) of 305 nM. For `COc1ccc2oc(C(=O)Nc3nnn[nH]3)c(OC(C)C3CCCC3)c2c1` (centres undefined), the half-inhibitory concentration (IC50) turned out to be 150 nM.

Molecule `CCC1(COc2c(C(=O)Nc3nnn[nH]3)oc3ccc(OC)cc23)COC1` displayed a half-inhibitory concentration (IC50) of 1460 nM. `COc1ccc2oc(C(=O)Nc3nnn[nH]3)c(OCC3CCCCCC3)c2c1` had a 50% inhibitory concentration (IC50) of 108 nM. In turn, `COc1ccc2oc(C(=O)Nc3nnn[nH]3)c(OC3CCC3)c2c1` showed an IC50 of 400 nM. `COc1ccc2oc(C(=O)Nc3nnn[nH]3)c(OC3CC(C)CC(C)C3)c2c1` (centres undefined) registered a concentration for half-maximal inhibition (IC50) of 41 nM. The molecule `COc1ccc2oc(C(=O)Nc3nnn[nH]3)c(OC(C)C3CC3)c2c1` (centres undefined) displayed a half-maximal inhibitory concentration (IC50) of 1460 nM. Under `O=C(Nc1nnn[nH]1)c1oc2ccc(Cl)cc2c1OC1CCCC1` stands 3320 nM. Under `COc1ccc2oc(C(=O)Nc3nnn[nH]3)c(OC3CCCCCC3)c2c1` stands 97 nM.
